Reference: patent US12215111B2, “Imidazopyridazine IL-17 inhibitor compounds” (Janssen Pharmaceutica NV, priority 2021, dated 2025)

What was measured:
[1] = target: IL-17A(FLAG-Tagged): IL-17RA(His-Tagged) (Homo sapiens, UniProt Q16552, K93Q); test: IL-17A(FLAG-tagged):IL-17RA(His-tagged) binding disruption Eu-HTRF assay, Protocol 1; conditions: FLAG tagged IL-17A at 2× final concentration (2.5 nM); simple average if tested more than once
Excerpt: IL-17A(FLAG-Tagged): IL-17RA(His-Tagged) Binding Disruption Eu-HTRF Assay
An antibody directed against the FLAG tag of IL-17A (SEQ ID NO:1) is labeled with the HTRF donor chromophore (Europium-cryptate). IL-17A is present as a dimer that is “locked into” this quaternary structure due to the formation of loop-spanning […] disulfide bridges. The construct of IL-17RA used in the assay excludes the outer-membrane portion of the receptor and is fused to a C-terminal 10×His tag (SEQ ID NO:2). An antibody directed against the His tag of the IL-17RA chimera is labeled with the HTRF acceptor chromophore (“D2”). The fluorescence-resonance energy transfer (FRET) depends on the vicinity of the donor chromophore to the acceptor, and interruption of the binding between the IL-17A and IL-17RA causes the reduction/loss of FRET. Therefore, this assay allows to evaluate the compound effect on the binding IL-17A and IL-17RA by monitoring the fluorescence intensity of donor vs acceptor. The assay was run using either Protocol 1 or Protocol 2 described below.
Protocol 1: 40 nL of 2-fold serial diluted compound solution for total 22 dilution points is added into each well of a 1536-well, white, low-volume, non-binding plate (Greiner #782904), then 2 μl of FLAG tagged IL-17A at 2× final concentration (2.5 nM) in solution of PBS+0.01% Triton-X100 is added to each well. The assay plate is briefly centrifuged then incubated for 1 h at rt. A mixed solution is prepared containing 2×5 nM 10HIS×IL-17RA, 2×2.5 nM Eu-anti-FLAG (CISBIO), 2×5 nM D2-anti-HIS (CISBIO) in PBS+0.01% Triton-X100+200 mM Potassium Fluoride (Sigma 60238) and […] of mix is added to each well of the assay plate. The plate is briefly centrifuged then incubated for 2 h at rt. The HTRF intensities at the wavelength of donor (620 nm) and acceptor (665 nm) are measured using BMG Pherastar. The ratio between intensities at two wavelengths is calculated and plotted against the compound concentration and the data is fitted to a one-site competition model to yield IC50 of the compound.

[2] = system: IL-17A-induced G-CSF production in human normal keratinocyte (NHK); test: NHK assay: IL-17A-induced G-CSF production in normal human keratinocytes; assay type: cell-based; conditions: IL-17A 5 ng/mL, 24 h at 37° C., G-CSF by HTRF, simple average if tested more than once
Description: IL-17A acts directly on keratinocytes through binding to dimeric receptor IL-17RA/RC and drives the production of a number of inflammatory mediators known to be elevated in psoriasis lesional tissue. IL-17A small molecule inhibitors that block the IL-17A to interact with IL-17R would inhibit the IL-17A signaling in its targeted cells such as keratinocytes. The compound functional activity is evaluated for its impact on IL-17A-induced G-CSF production in human normal keratinocyte (NHK).
Adult normal human keratinocytes are cultured in keratinocyte growth medium (Lonza) in a flask till reaching ˜90% confluence, then cells are transferred to a 384-well plate at density of 3000-4000 cell/well. Recombinant human IL-17A (Gibco PHC9174) is pre-incubated with titrated compound or DMSO for 1 h at rt then added to the cell culture plate. The final concentration of IL-17A is 5 ng/mL and DMSO is 0.2%, in the culture containing 5% FBS. Cells are cultured/treated for 24 h at 37° C. Supernatants are collected and G-CSF production is measured through HTRF technology using Human G-CSF Kit (CisBio). G-CSF concentration was extrapolated from the standard curve and IC50 is determined using GraphPad Prism. Cell viability is also evaluated using CellTiter-Glo kit (Promega) and effect of compound on cell viability is compared to DMSO control.

UniProt Q16552, sequence (Q16552 with tags, fused parts or gaps K93Q): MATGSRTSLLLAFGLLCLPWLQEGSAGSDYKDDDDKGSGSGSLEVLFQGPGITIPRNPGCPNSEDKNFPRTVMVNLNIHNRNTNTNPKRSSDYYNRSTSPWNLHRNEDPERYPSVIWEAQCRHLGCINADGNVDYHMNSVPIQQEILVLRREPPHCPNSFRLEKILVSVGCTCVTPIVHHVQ

`COC[C@H](c1cnn2cc([C@H](COC(C)(C)C(F)(F)F)NC(=O)[C@H]3C[C@@H]3C(F)(F)F)nc2c1)N1C[C@@H](C(F)(F)F)NC1=O` (relative stereo) [Example 33, (1S*,2S*)—N—((R)-1-(7-((S)-2-Methoxy-1-((S)-2-oxo-4-(trifluoromethyl)imidazolidin-1-yl)ethyl)imidazo[1,2-b]pyridazin-2-yl)-2-(1,1,1-trifluoro-2-methylpropan-2-yl)oxy)ethyl)-2-(trifluoromethyl)cyclopropane-1-carboxamide] showed an IC50 [1] of less than 4 µM and an IC50 ([2]; Homo sapiens, Keratinocyte) of less than 4 µM.
In the case of `O=C(N[C@H](c1cn2ncc(CN3C(=O)N[C@H]4CC(F)(F)C[C@H]43)cc2n1)C1CCC(F)(F)CC1)c1nonc1C1CC1` (single isomer, unassigned) [Example 8, 4-Cyclopropyl-N—((S)-(7-(((3aS*,6aR*)-5,5-difluoro-2-oxohexahydrocyclopenta[d]imidazol-1(2H)-yl)methyl)imidazo[1,2-b]pyridazin-2-yl)(4,4-difluorocyclohexyl)methyl)-1,2,5-oxadiazole-3-carboxamide], the IC50 [1] is reported as less than 4 µM and the IC50 ([2]; Homo sapiens, Keratinocyte) is reported as less than 4 µM.
With `Cc1nonc1C(=O)N[C@H](c1cn2ncc([C@@H](C3CC3)N3CC(CC(F)(F)F)NC3=O)cc2n1)C1CCC(F)(F)CC1` (single isomer, unassigned) [Example 19, N—((S)-(7-((R)-Cyclopropyl((R*)-2-oxo-4-(2,2,2-trifluoroethyl)imidazolidin-1-yl)methyl)imidazo[1,2-b]pyridazin-2-yl)(4,4-difluorocyclohexyl)methyl)-4-methyl-1,2,5-oxadiazole-3-carboxamide] the IC50 [1] was less than 4 µM and the IC50 ([2]; Homo sapiens, Keratinocyte) was less than 4 µM.
Work on `Cc1nonc1C(=O)N[C@H](c1cn2ncc([C@@H](C3CC3)N3CC(CC(F)(F)F)NC3=O)cc2n1)C1CCC(F)(F)CC1` (single isomer, unassigned) [Example 20, N—((S)-(7-((R)-Cyclopropyl((S*)-2-oxo-4-(2,2,2-trifluoroethyl)imidazolidin-1-yl)methyl)imidazo[1,2-b]pyridazin-2-yl)(4,4-difluorocyclohexyl)methyl)-4-methyl-1,2,5-oxadiazole-3-carboxamide] yielded an IC50 [1] of less than 4 µM and an IC50 [2] of less than 4 µM.
`Cc1nonc1C(=O)N[C@H](c1cn2ncc(CN3CCNC3=O)cc2n1)C1CCC(F)(F)CC1` [Example 1, (S)—N-((4,4-Difluorocyclohexyl)(7-((2-oxoimidazolidin-1-yl)methyl)imidazo[1,2-b]pyridazin-2-yl)methyl)-4-methyl-1,2,5-oxadiazole-3-carboxamide] was tested, and the IC50 [1] was less than 4 µM and the IC50 ([2]; Homo sapiens, Keratinocyte) was 4 to 10 µM.
Compound `O=C(N[C@H](c1cn2ncc(CN3CCNC3=O)cc2n1)C1CCC(F)(F)CC1)c1nonc1C1CC1` [Example 2, (S)-4-Cyclopropyl-N-((4,4-difluorocyclohexyl)(7-((2-oxoimidazolidin-1-yl)methyl)imidazo[1,2-b]pyridazin-2-yl)methyl)-1,2,5-oxadiazole-3-carboxamide] has an IC50 [1] of less than 4 µM and an IC50 ([2]; Homo sapiens, Keratinocyte) of less than 4 µM.
`CC(C)n1nccc1C(=O)N[C@H](c1cn2ncc(CN3CCNC3=O)cc2n1)C1CCC(F)(F)CC1` [Example 3, (S)—N-((4,4-Difluorocyclohexyl)(7-((2-oxoimidazolidin-1-yl)methyl)imidazo[1,2-b]pyridazin-2-yl)methyl)-1-isopropyl-1H-pyrazole-5-carboxamide] showed an IC50 [1] of less than 4 µM and an IC50 ([2]; Homo sapiens, Keratinocyte) of less than 4 µM.
For `C[C@H]1CN(Cc2cnn3cc([C@@H](NC(=O)c4nonc4C4CC4)C4CCC(F)(F)CC4)nc3c2)C(=O)N1` [Example 4, 4-Cyclopropyl-N—((S)—(4,4-difluorocyclohexyl)(7-(((S)-4-methyl-2-oxoimidazolidin-1-yl)methyl)imidazo[1,2-b]pyridazin-2-yl)methyl)-1,2,5-oxadiazole-3-carboxamide], the IC50 [1] was less than 4 µM and the IC50 ([2]; Homo sapiens, Keratinocyte) was less than 4 µM.
`CC(C)n1nccc1C(=O)N[C@H](c1cn2ncc(CN3C[C@H](C)NC3=O)cc2n1)C1CCC(F)(F)CC1` [Example 5, N—((S)—(4,4-Difluorocyclohexyl)(7-(((S)-4-methyl-2-oxoimidazolidin-1-yl)methyl)imidazo[1,2-b]pyridazin-2-yl)methyl)-1-isopropyl-1H-pyrazole-5-carboxamide] showed an IC50 [1] of less than 4 µM and an IC50 ([2]; Homo sapiens, Keratinocyte) greater than 10 µM.
For `C[C@@H]1CN(Cc2cnn3cc([C@@H](NC(=O)c4nonc4C4CC4)C4CCC(F)(F)CC4)nc3c2)C(=O)N1` [Example 6, 4-Cyclopropyl-N—((S)—(4,4-difluorocyclohexyl)(7-(((R)-4-methyl-2-oxoimidazolidin-1-yl)methyl)imidazo[1,2-b]pyridazin-2-yl)methyl)-1,2,5-oxadiazole-3-carboxamide], the IC50 [1] was less than 4 µM and the IC50 ([2]; Homo sapiens, Keratinocyte) was less than 4 µM.
With `COC[C@H](c1cnn2cc([C@H](COC(C)(C)C(F)(F)F)NC(=O)c3nonc3C)nc2c1)N1C[C@@H](C(F)(F)F)NC1=O` [Example 9] the IC50 [1] was less than 4 µM and the IC50 ([2]; Homo sapiens, Keratinocyte) was less than 4 µM.
Compound `COC[C@H](c1cnn2cc([C@H](COC(C)(C)C(F)(F)F)NC(=O)c3nonc3C3CC3)nc2c1)N1C[C@@H](C(F)(F)F)NC1=O` [Example 10] has an IC50 [1] of less than 4 µM and an IC50 ([2]; Homo sapiens, Keratinocyte) of less than 4 µM.
With `COC[C@H](c1cnn2cc([C@H](COC(C)(C)C(F)(F)F)NC(=O)c3ccnn3C(C)C)nc2c1)N1C[C@@H](C(F)(F)F)NC1=O` [Example 11] the IC50 [1] was less than 4 µM and the IC50 ([2]; Homo sapiens, Keratinocyte) was less than 4 µM.
`Cc1nonc1C(=O)N[C@H](c1cn2ncc([C@@H](C3CC3)N3CC4(CC4)NC3=O)cc2n1)C1CCC(F)(F)CC1` [Example 21, N—[(S)—[7-[(R)-Cyclopropyl-(6-oxo-5,7-diazaspiro[2.4]heptan-5-yl)methyl]imidazo[1,2-b]pyridazin-2-yl]-(4,4-difluorocyclohexyl)methyl]-4-methyl-1,2,5-oxadiazole-3-carboxamide] gave an IC50 ([2]; Homo sapiens, Keratinocyte) of less than 4 µM.
With `CC(C)(OC[C@H](NC(=O)c1nonc1C1CC1)c1cn2ncc(CN3C[C@@H](C(F)(F)F)NC3=O)cc2n1)C(F)(F)F` [Example 24] the IC50 ([2]; Homo sapiens, Keratinocyte) was less than 4 µM.
`Cc1nonc1C(=O)N[C@H](c1cn2ncc(CN3C[C@@](C)(C(F)(F)F)NC3=O)cc2n1)C1CCC(F)(F)CC1` [Example 28, N—((S)—(4,4-Difluorocyclohexyl)(7-(((S)-4-methyl-2-oxo-4-(trifluoromethyl)imidazolidin-1-yl)methyl)imidazo[1,2-b]pyridazin-2-yl)methyl)-4-methyl-1,2,5-oxadiazole-3-carboxamide] gave an IC50 ([2]; Homo sapiens, Keratinocyte) of less than 4 µM.
In the case of `C[C@@]1(C(F)(F)F)CN(Cc2cnn3cc([C@@H](NC(=O)c4nonc4C4CC4)C4CCC(F)(F)CC4)nc3c2)C(=O)N1` [Example 29], the IC50 ([2]; Homo sapiens, Keratinocyte) is reported as less than 4 µM.
Compound `Cc1nonc1C(=O)N[C@@H](CCC(C)(C)C(F)(F)F)c1cn2ncc([C@@H](COC3CC3)N3C[C@@H](C(F)(F)F)NC3=O)cc2n1` [Example 38, N—((S)-1-(7-((S)-2-Cyclopropoxy-((S)-2-oxo-4-(trifluoromethyl)imidazolidin-1-yl)ethyl)imidazo[1,2-b]pyridazin-2-yl)-5,5,5-trifluoro-4,4-dimethylpentyl)-4-methyl-1,2,5-oxadiazole-3-carboxamide] has an IC50 ([2]; Homo sapiens, Keratinocyte) of less than 4 µM.
Compound `CC(C)(CC[C@H](NC(=O)c1nonc1C1CC1)c1cn2ncc([C@@H](COC3CC3)N3C[C@@H](C(F)(F)F)NC3=O)cc2n1)C(F)(F)F` [Example 39, N—((S)-1-(7-((S)-2-Cyclopropoxy-((S)-2-oxo-4-(trifluoromethyl)imidazolidin-1-yl)ethyl)imidazo[1,2-b]pyridazin-2-yl)-5,5,5-trifluoro-4,4-dimethylpentyl)-4-cyclopropyl-1,2,5-oxadiazole-3-carboxamide] has an IC50 ([2]; Homo sapiens, Keratinocyte) of less than 4 µM.
